In assay [1] the test system is HeLa. Kind of assay: Induction of apoptosis in Homo sapiens (human) HeLa cells assessed as membrane blebbing at <40 ug/ml after 24 hr by light microscopic analysis. The class given is functional, cell-based.
Assay [2] relates to HeLa. Kind of assay: Induction of apoptosis in Homo sapiens (human) HeLa cells assessed as detachment from substratum at <40 ug/ml after 24 hr by light microscopic analysis. The format is functional, cell-based.
Assay [3] deals with HeLa. The assay can be described thus: Induction of apoptosis in Homo sapiens (human) HeLa cells assessed as loss of cell to cell contact at <40 ug/ml after 24 hr by light microscopic analysis. The class given is functional, cell-based.
Assay [4] concerns HeLa. Kind of assay: Cytotoxicity against Homo sapiens (human) HeLa cells assessed as cell death at 10 to 100 ug/ml after 48 hr by light microscopic analysis. The class given is functional, cell-based.
The subject of assay [5] is HeLa. Kind of assay: Induction of apoptosis in Homo sapiens (human) HeLa cells assessed as rounded cells at 10 to 100 ug/ml after 48 hr by light microscopic analysis. The format is functional, cell-based.
For assay [6], the system named is HeLa. Kind of assay: Induction of apoptosis in Homo sapiens (human) HeLa cells assessed as floating cells at 10 to 50 ug/ml after 24 hr by light microscopic analysis. The format is functional, cell-based.
The test system of assay [7] is HeLa. The assay can be described thus: Induction of apoptosis in Homo sapiens (human) HeLa cells assessed as rounded cells at 10 to 50 ug/ml after 24 hr by light microscopic analysis. The format is functional, cell-based.
The subject of assay [8] is HeLa. The assay can be described thus: Cytotoxicity against Homo sapiens (human) HeLa cells up to 3 days by MTT assay. The following applies: for IC50: 72 h. The class given is functional, cell-based.
The test system of assay [9] is HeLa. The assay can be described thus: Growth inhibition of Homo sapiens (human) HeLa cells at 10 to 30 ug/ml up to 3 days by MTT assay. The format is functional. In general terms: Formazan colour is commonly taken as a measure of viable cells.
The test system of assay [10] is HeLa. The assay can be described thus: Induction of apoptosis in Homo sapiens (human) HeLa cells assessed as fragmented nuclei at 10 to 100 ug/ml after 24 hr by acridine orange/ethidium bromide-based inverted fluorescence microscopic analysis. The class given is functional, cell-based.
The test system of assay [11] is HeLa. The assay can be described thus: Cytotoxicity against Homo sapiens (human) HeLa cells assessed as decrease in cell viability at 10 to 100 ug/ml after 24 hr by acridine orange/ethidium bromide-based inverted fluorescence microscopic analysis. The class given is functional.
Assay [12] relates to HeLa. The assay can be described thus: Induction of necrosis in Homo sapiens (human) HeLa cells assessed as dissolution of cytoplasmic membrane at >50 ug/ml after 24 hr by light microscopic analysis. The class given is functional, cell-based.
Assay [13] relates to HeLa. Kind of assay: Induction of necrosis in Homo sapiens (human) HeLa cells assessed as chromatin flocculation at >50 ug/ml after 24 hr by light microscopic analysis. The class given is functional, cell-based.
Assay [14] has as its system HeLa. The assay can be described thus: Induction of necrosis in Homo sapiens (human) HeLa cells assessed as dissolution of nuclear membrane at >50 ug/ml after 24 hr by light microscopic analysis. The format is functional, cell-based.
Assay [15] concerns HeLa. Kind of assay: Induction of necrosis in Homo sapiens (human) HeLa cells assessed as increase in cytoplasmic vacuolization at >50 ug/ml after 24 hr by light microscopic analysis. The format is functional, cell-based.
For assay [16], the system named is HeLa. The assay can be described thus: Induction of necrosis in Homo sapiens (human) HeLa cells assessed as increase in cytoplasmic volume at >50 ug/ml after 24 hr by light microscopic analysis. The class given is functional, cell-based.
For assay [17], the system named is HeLa. Kind of assay: Induction of necrosis in Homo sapiens (human) HeLa cells assessed as increase in nucleus volume at >50 ug/ml after 24 hr by light microscopic analysis. The class given is functional, cell-based.
Assay [18] has as its system HeLa. The assay can be described thus: Induction of apoptosis in Homo sapiens (human) HeLa cells assessed as apoptotic bodies at <40 ug/ml after 24 hr by light microscopic analysis. The format is functional, cell-based.
The subject of assay [19] is HeLa. The assay can be described thus: Induction of apoptosis in Homo sapiens (human) HeLa cells assessed as apoptotic bodies at <55 ug/ml after 24 hr by light microscopic analysis. The class given is functional, cell-based.
Assay [20] has as its system HeLa. The assay can be described thus: Induction of apoptosis in Homo sapiens (human) HeLa cells assessed as membrane blebbing at <55 ug/ml after 24 hr by light microscopic analysis. The format is functional, cell-based.
In assay [21] the test system is HeLa. Kind of assay: Induction of apoptosis in Homo sapiens (human) HeLa cells assessed as detachment from substratum at <55 ug/ml after 24 hr by light microscopic analysis. The format is functional, cell-based.
Assay [22] relates to HeLa. The assay can be described thus: Induction of apoptosis in Homo sapiens (human) HeLa cells assessed as loss of cell to cell contact at <55 ug/ml after 24 hr by light microscopic analysis. The format is functional, cell-based.

Converted amounts (≈) assume the structure as drawn. The source made the active and inactive calls. The calls are words filed in the database; no cut-off is given here.

Turning to `CC(C)=CCCC(C)=CC=O`, the outcome with HeLa [1], with HeLa [2], with HeLa [3], in the assay on HeLa [4], in the assay with HeLa [5] and in the assay on HeLa [6] was Active. The result in the assay with HeLa [7], with HeLa [10], in the assay on HeLa [11], in the assay on HeLa [12], with HeLa [13] and with HeLa [14] was Active. Further, the outcome with HeLa [15], in the assay on HeLa [16], in the assay on HeLa [17] and with HeLa [18] was Active. The Activity result in the assay on HeLa [8] is “Dose-dependent effect”. The IC50 (usually the point on the concentration scale where inhibition reaches its midpoint) with HeLa [8] stood at 39.6 µg/mL (≈ 260 µM). For the same molecule, in the assay on HeLa [9], the “growth inhibition (GI)” value came to 60%.
With `C=C1C2CCC(C2)C1(C)C` (configuration not stated) [CAMPHENE], the outcome with HeLa [1], in the assay on HeLa [2], in the assay with HeLa [3], in the assay on HeLa [4], with HeLa [5] and with HeLa [6] was Active. Also, the outcome in the assay with HeLa [7], with HeLa [10], in the assay on HeLa [11], in the assay on HeLa [12], in the assay with HeLa [13] and with HeLa [14] was Active. Besides, the result in the assay on HeLa [15], in the assay with HeLa [16], in the assay with HeLa [17] and in the assay with HeLa [18] was Active. Moreover, the Activity result in the assay with HeLa [8] is “Dose-dependent effect”. The IC50 in the assay with HeLa [8] worked out at 38.5 µg/mL (≈ 283 µM). Further, the “growth inhibition (GI)” value with HeLa [9] is given as 60%.
In the case of `C=CC(C)(O)CCC=C(C)C` (configuration not stated) [LINALOOL], the outcome in the assay on HeLa [4], in the assay on HeLa [5], in the assay on HeLa [6], in the assay with HeLa [7], in the assay with HeLa [10] and in the assay with HeLa [11] was Active. Moreover, the result in the assay with HeLa [12], in the assay with HeLa [13], in the assay with HeLa [14], in the assay on HeLa [15], in the assay with HeLa [16] and in the assay on HeLa [17] was Active. The outcome in the assay with HeLa [19], with HeLa [20], in the assay on HeLa [21] and in the assay with HeLa [22] was Active. The Activity entry in the assay with HeLa [8] is “Dose-dependent effect”. The molecule also came in with an IC50 in the assay on HeLa [8] of 55.4 µg/mL (≈ 359 µM). In addition, the “growth inhibition (GI)” value in the assay on HeLa [9] turned out to be 60%.

The values above are taken from ChEMBL document CHEMBL3046054, “Chemico-biological investigation of rhizome essential oil of Zingiber morannative to Northeast India” (Med Chem Res, 2013).
